The source of these data is ChEMBL document CHEMBL1201862, “PubChem BioAssay data set” (2004).

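Five concentrations, 48 hours, 96-well plates. GI50 marks 50% less growth.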 Calls of active or inactive are those of the source. Rule as the data show it: active = GI50 up to about 1.1 µM and inactive = higher. Bounds are passed on as bounds.

Some test systems named below: CCRF-CEM; HCC 2998; HCT-15; HOP-62; HT-29; K562; MOLT-4; Malme-3M; NCI-H23; NCI-H522; OVCAR-3; RPMI-8226; SF-268; SF-295; SK-MEL-5; SN12C; SW-620; TK-10; MCF7; NCI/ADR-RES.
Common to all, as to assay: NCI anticancer screen, dose series, 48 h

Turning to `NC(=O)C(=O)N/N=C1/c2ccccc2CC1C1(O)C(=O)Nc2c(Cl)cc(Cl)cc21` (stereo not drawn), the GI50 in the test with CCRF-CEM is 61.5 µM (inactive); in the test with HCC 2998, > 100 µM (inactive); in the test with HCT-15, over 100 µM; with HOP-62, > 100 µM (inactive); with HT-29, > 100 µM (inactive); in the test on K562, 88.7 µM (inactive). The GI50 is > 100 µM (inactive) with MOLT-4; > 100 µM (inactive) with Malme-3M; > 100 µM (inactive) in the test on NCI-H23; 61.4 µM (inactive) in the test with NCI-H522; > 100 µM (inactive) in the test on OVCAR-3; > 100 µM (inactive) in the test with RPMI-8226. The GI50 in the test with SF-268, with SF-295, in the test with SK-MEL-5, in the test on SN12C, with SW-620 and in the test with TK-10 was > 100 µM (inactive) in each case.

`O=C(O)c1ccccc1/C=N\N(CCO)C1=NCCN1`: the GI50 is > 100 µM (inactive) in the test on CCRF-CEM; > 100 µM (inactive) in the test with HCC 2998; over 100 µM in the test with HCT-15; > 100 µM (inactive) in the test on HOP-62; > 100 µM (inactive) with HT-29; > 100 µM (inactive) with K562. For the same molecule, the GI50 with MCF7, with MOLT-4, in the test with Malme-3M, with NCI-H23, in the test on OVCAR-3 and in the test on RPMI-8226 was > 100 µM (inactive) each time. The GI50 in the test on SF-268, in the test on SF-295, with SK-MEL-5, in the test with SN12C, in the test on SW-620 and in the test with TK-10 was > 100 µM (inactive) each time.

For the molecule `CCOC(=O)C1C(c2cc(OC)c(O)c(OC)c2)c2cc3c(cc2OC1(C)O)OCO3` (stereo not drawn), the GI50 with CCRF-CEM is > 100 µM (inactive); in the test on HCT-15 it was 46.6 µM; with HOP-62, 14.3 µM (inactive); in the test on HT-29, 41.1 µM (inactive); in the test with K562, > 100 µM (inactive); with MOLT-4 it was 35 µM (inactive). The GI50 is > 100 µM (inactive) with Malme-3M; 66.5 µM (inactive) in the test on NCI-H23; 65.3 µM (inactive) in the test with OVCAR-3; 71.1 µM (inactive) in the test with RPMI-8226; 35.2 µM (inactive) in the test on SF-295; 36 µM (inactive) with SK-MEL-5. Also, the values for the GI50 in the test with SN12C, with SW-620 and with TK-10 were 88.5 µM (inactive), 42.9 µM (inactive) and > 100 µM (inactive), respectively.

Consider `Cn1ncc2c(=O)[nH]c(-c3ccccc3)nc21`, for which the GI50 with CCRF-CEM was > 100 µM (inactive); in the test with HCC 2998 it was > 100 µM (inactive); in the test with HCT-15, over 100 µM; with HT-29 it was > 100 µM (inactive); in the test on K562, > 100 µM (inactive); in the test on MOLT-4, > 100 µM (inactive). Further, the GI50 in the test on Malme-3M, in the test with NCI-H23, in the test with NCI-H522, in the test with RPMI-8226, in the test with SF-268 and in the test on SF-295 was > 100 µM (inactive) in each case. The GI50 in the test with SK-MEL-5, with SN12C, in the test with SW-620 and in the test with TK-10 was > 100 µM (inactive) each time.

As for `COc1ccc(C2C(=O)C(Cl)N2Nc2nc(C)cc(O)n2)cc1OC` (stereo not drawn), the GI50 in the test with CCRF-CEM is 5.58 µM (inactive); in the test with HCC 2998, 42.6 µM (inactive); in the test with HCT-15, 20.2 µM; with HOP-62 it was 23.6 µM (inactive); with HT-29 it was 46.1 µM (inactive); in the test with K562, 22 µM (inactive). Further, the GI50 in the test on MOLT-4 is 18.7 µM (inactive); in the test with NCI-H23 it was 25.3 µM (inactive); in the test with OVCAR-3, 10.2 µM (inactive); with RPMI-8226, 19.1 µM (inactive); in the test on SF-268 it was 17.9 µM (inactive); in the test on SK-MEL-5, 29.3 µM (inactive). In addition, the values for the GI50 in the test with SN12C, in the test on SW-620 and in the test on TK-10 were 21.7 µM (inactive), 45.3 µM (inactive) and 43.6 µM (inactive), respectively.

Turning to `O=c1ccn(C2OC(CN(O)CCC3C(O)C(CO)OC3n3ccc(=O)[nH]c3=O)C(O)C2O)c(=O)[nH]1` (stereo not drawn), the GI50 in the test with HCC 2998 was > 100 µM (inactive); in the test with HCT-15, over 100 µM; in the test with HOP-62 it was > 100 µM (inactive); in the test with HT-29, > 100 µM (inactive); in the test on K562, > 100 µM (inactive); in the test with MCF7, > 100 µM (inactive). Besides, the GI50 with Malme-3M, in the test on NCI-H23, in the test with NCI/ADR-RES, with OVCAR-3, in the test on RPMI-8226 and in the test with SF-268 was > 100 µM (inactive) throughout. Further, the GI50 in the test with SF-295, in the test with SN12C and in the test on TK-10 was > 100 µM (inactive) each time.

On to `[N-]=[N+]=NC1(c2ccccc2)C(=O)Nc2ccccc2C1=O` (stereo not drawn), for which the GI50 with CCRF-CEM was 27.3 µM (inactive); with HCC 2998, 57.8 µM (inactive); in the test with HCT-15, 33.8 µM; in the test with HOP-62, 41.8 µM (inactive); in the test with HT-29 it was 31.3 µM (inactive); in the test on K562, 29.4 µM (inactive). Also, the GI50 is 35 µM (inactive) in the test with MCF7; 21.7 µM (inactive) in the test on MOLT-4; 40.7 µM (inactive) with Malme-3M; 34.9 µM (inactive) with NCI-H23; 51.2 µM (inactive) in the test on NCI/ADR-RES; 35 µM (inactive) in the test with OVCAR-3. Further, the GI50 in the test with RPMI-8226 is 22.7 µM (inactive); in the test on SF-268, 38.2 µM (inactive); with SF-295, 56.4 µM (inactive); with SK-MEL-5, 14.9 µM (inactive); in the test with SN12C it was 48.8 µM (inactive); in the test with SW-620, 26.4 µM (inactive). In the test on TK-10, the GI50 is 49.5 µM (inactive).

For the molecule `COc1ccc2c(c1)C/C(=C\c1ccc(O)c(OC)c1)C2=O`, the GI50 with HCC 2998 was > 100 µM (inactive); in the test on HCT-15, over 100 µM; with HT-29, > 100 µM (inactive); with K562 it was > 100 µM (inactive); with MCF7, > 100 µM (inactive); in the test with MOLT-4, > 100 µM (inactive). Besides, the GI50 was > 100 µM (inactive) in the test with NCI-H23; > 100 µM (inactive) in the test on NCI/ADR-RES; > 100 µM (inactive) in the test with OVCAR-3; > 100 µM (inactive) with RPMI-8226; > 100 µM (inactive) in the test on SF-268; > 10 µM (inactive) in the test with SK-MEL-5. Also, the GI50 with SN12C, with SW-620 and in the test with TK-10 was > 100 µM (inactive) each time.

For `NC1CC(=O)c2sc(I)cc21` (stereo not drawn), the GI50 was 37.4 µM (inactive) in the test on CCRF-CEM; > 100 µM (inactive) with HCC 2998; 35.8 µM with HCT-15; > 100 µM (inactive) with HOP-62; > 100 µM (inactive) in the test on HT-29; 74 µM (inactive) in the test on K562. In addition, the GI50 in the test on MCF7 was > 100 µM (inactive); with MOLT-4, 71.9 µM (inactive); in the test with Malme-3M it was > 100 µM (inactive); with NCI/ADR-RES, > 100 µM (inactive); in the test with OVCAR-3 it was > 100 µM (inactive); in the test with RPMI-8226, 92.5 µM (inactive). The GI50 in the test with SF-268 was > 100 µM (inactive); in the test on SK-MEL-5 it was > 100 µM (inactive); in the test with SN12C, > 100 µM (inactive); with SW-620, 53.6 µM (inactive); with TK-10, > 100 µM (inactive).

On to `CCOC1CC2OC(=O)C1C=C2C(=O)OC` (stereo not drawn), for which the GI50 is 16.8 µM (inactive) in the test with CCRF-CEM; > 100 µM (inactive) in the test on HCC 2998; 27.7 µM in the test with HCT-15; > 100 µM (inactive) in the test on HOP-62; 37.5 µM (inactive) in the test with HT-29; 25.8 µM (inactive) with K562. In addition, the GI50 in the test with MOLT-4 is 17.4 µM (inactive); in the test on Malme-3M, 20.5 µM (inactive); in the test on NCI-H23, 17.9 µM (inactive); in the test with NCI-H522, 12 µM (inactive); with OVCAR-3, 28.4 µM (inactive); with RPMI-8226, 14.7 µM (inactive). The GI50 with SF-268 is 28.9 µM (inactive); with SF-295, > 100 µM (inactive); with SK-MEL-5, 36.4 µM (inactive); in the test with SW-620, 21.9 µM (inactive); in the test on TK-10, 37.8 µM (inactive).

Consider `CCCOC(=O)CNC(=O)OC(C)(C)C`, for which the GI50 in the test on CCRF-CEM is > 100 µM (inactive); in the test with HCC 2998, > 100 µM (inactive); with HCT-15 it was over 100 µM; in the test on HOP-62, > 100 µM (inactive); with HT-29, > 100 µM (inactive); in the test on K562, > 100 µM (inactive). Also, the GI50 in the test on Malme-3M, in the test on NCI-H23, with NCI-H522, with OVCAR-3, in the test on SF-268 and in the test with SF-295 was > 100 µM (inactive) in each case. For the same molecule, the GI50 in the test on SK-MEL-5, in the test with SW-620 and with TK-10 was > 100 µM (inactive) throughout.

With `CC(C)C1=CC2=CC[C@@H]3[C@](C)(CCC[C@@]3(C)C(=O)O)[C@H]2CC1` [ABIETIC ACID], the GI50 with CCRF-CEM is 42.9 µM (inactive); in the test with HCC 2998 it was > 80 µM (inactive); with HCT-15, 43.4 µM; in the test on HOP-62, > 67.8 µM (inactive); in the test on HT-29, 30.1 µM (inactive); in the test with K562 it was > 53 µM (inactive). Moreover, the GI50 in the test on MOLT-4 was 40.2 µM (inactive); in the test with Malme-3M it was > 67 µM (inactive); in the test with NCI-H23 it was 45.3 µM (inactive); in the test on NCI-H522, 45.7 µM (inactive); with OVCAR-3 it was 35.7 µM (inactive); in the test with RPMI-8226, > 46.6 µM (inactive). For the same molecule, the GI50 in the test with SF-268 was > 69 µM (inactive); with SF-295 it was 37.8 µM (inactive); with SK-MEL-5, 60.5 µM (inactive); in the test with SN12C, 62.4 µM (inactive); in the test on SW-620, 45.8 µM (inactive); in the test with TK-10, > 66.4 µM (inactive).
